In patent US20220202943A1, “TOPICAL COMPOSITIONS FOR SKIN COMPRISING A CELL PENETRATING PEPTIDE AND METHODS OF USING THE SAME” (ImDerma Laboratories Co. Ltd., priority 2020, published 2022):
Where no end group is shown, it is not given here.

Experiments:
Type in all cases: cell-based, human
HaCaT cells [1] = experiment: Intracellular ROS induced by H2O2 in HaCaT cells, DCFDA fluorescence assay
Experimental: (§1) Following the removal of DMEM medium in the 96-well plate, 100 uL of 1 μM peptide X and 100 uL of tea polyphenols (0.01%, 0.05% or 0.1%), were added in the 96-well plate. After 2, 4, 6, 16 or 24 hours of reaction, the peptide X and tea polyphenols were removed and then DMEM medium with 1.2 mM H2O2 was added for 2 hours of reaction in dark to induce intracellular ROS in the HaCaT cells. After the above reaction, DMEM medium with 1.2 mM H2O2 was removed from the 96-well plate and 100 μL of 10 μM DCFDA (2′,7′—dichlorofluorescin diacetate) was added for half an hour of reaction to measure the levels of intracellular ROS in HaCaT cells using fluorescence assay. Following the removal of DCFDA, the treated cells were washed with 200 μL of PBS. Subsequently, after PBS was removed, 100 μL of transparent DMEM medium was added and absorbance at 488/520 nm was measured to determinate the levels of intracellular ROS. After the above measurement, the transparent DMEM medium was removed and then 100 μL of 1 mg/mL MTT was added for 2 hours of reaction; subsequently, the absorbance at 595 nm was measured for calculating the cell viability.
EUK134™ (0.12 μM, 0.23 μM or 2.35 μM) or a mixture of peptide X (1 μM) and EUK134™ (0.12 μM or 0.23 μM), were added in HaCaT cells for 8 hours of reaction. Following the removal of EUK134™ and the mixture of peptide X and EUK134™, 1.2 mM H2O2 was added to induce intracellular ROS in the HaCaT cells and then the levels of intracellular ROS were detected using DCFDA. After the detection of the levels of intracellular ROS, the cell viability was confirmed using MTT assay.
Resveratrol (6.25 μM, 12.5 μM or 25 μM) or a mixture of peptide X (1 μM) and resveratrol (6.25 μM, 12.5 μM or 25 μM), were added in HaCaT cells for different time of reaction. Following the removal of resveratrol and the mixture of peptide X and resveratrol, 1.2 mM H2O2 was added to induce intracellular ROS in the HaCaT cells and then the levels of intracellular ROS were detected using DCFDA. After the detection of the levels of intracellular ROS, the cell viability was confirmed using MTT assay.

HaCaT cells [2] = experiment: Cell viability of HaCaT cells, MTT assay; conditions: 1.0 μM peptide X
Experimental: as §1
EUK134™ (0.12 μM, 0.23 μM or 2.35 μM) or a mixture of peptide X (1 μM) and EUK134™ (0.12 μM or 0.23 μM), were added in HaCaT cells for 8 hours of reaction. […]

type I pro-collagen = experiment: Type I pro-collagen level in Hs68 cells, ELISA; conditions: TGF-β 10 ng/mL
Experimental: In order to confirm if the peptide X is capable of delivering TGF-β into skin cells, Hs68 cells were seeded in a 6-well plate. Following the removal the medium in the 6-well plate, TGF-β (10 ng/mL), peptide X (1.0 μM) or a mixture of TGF-β (10 ng/mL) and peptide X (1.0 μM) were added in the 6-well plate. After 6, 12 or 24 hours of reaction, the level of type I pro-collagen in the cells was confirmed using ELISA kit with human pro-collagen 1 alpha 1 capture antibody and human pro-collagen 1 alpha 1 detector antibody.

For `Oc1ccc(/C=C/c2cc(O)cc(O)c2)cc1` [resveratrol, reference compound], which “reduction of level of intracellular ROS induced by H2O2” value (HaCaT cells [1]; resveratrol 6.25, 12.5 or 25 μM without peptide X, no significant difference among concentrations) is on record?
The value was 75˜80%.

“NYRWRCKNQN [peptide X, Asn-Tyr-Arg-Trp-Arg-Cys-Lys-Asn-Gln-Asn]” was tested. Which “cytotoxicity to HaCaT cells” value (HaCaT cells [2]) did it give?
Its value is “no cytotoxicity”.

With TGF-β as the compound, how does the “increase of expression of type I pro-collagen” value (type I pro-collagen) read?
The value was ~20%.

Which results are given for “ethylbisiminomethylguaiacol manganese chloride [EUK134™]”?
reduction of level of intracellular ROS induced by H2O2 (HaCaT cells [1]; 0.12 μM EUK134 without peptide X, 8 hours of treatment): 50%; reduction of level of intracellular ROS (HaCaT cells [1]; 0.23 μM EUK134 without peptide X, 8 hours of treatment): 50%; level of intracellular ROS induced by H2O2 (HaCaT cells [1]; EUK134 0.12, 0.23 or 2.35 μM without peptide X, with the increase of concentration, 8 hours): slightly decreased
